Experimental data from patent US5808109A, “Compounds that inhibit complement and/or suppress immune activity” (T Cell Sciences, Inc., priority 1995, dated 1998).
pIC50: −log10 of the molar value. Values joined by “and” are separate entries in the source; they are usually repeats but may differ in a detail not shown here. Equal entries are not always repeated. Structures can show the parent of a compound that is named as a salt. Where two headings read alike, the source gives them in different places.

What was measured:
rat complement = assay: Inhibition of complement-mediated hemolysis, rat serum as complement source; format: biochemical; conditions: Table XIII; read-out: IH50 for Rat Complement
[1] = system: alternative complement pathway; assay: Inhibition of alternative pathway mediated hemolysis, rabbit erythrocytes, human serum; format: biochemical; conditions: Table XIV, human serum 1 in 24, read-out: Alternative pathway AH50
Protocol: The capacity of the substituted dihydrobenzofurans to inhibit the alternative complement pathway was assessed using the modified method of Platts-Mills and Ishizaka, 1974, J. Immunol., 113:348-358. Essentially, rabbit erythrocytes were lysed using human serum as complement in gelatin veronal buffer (GVB, Sigma, St. Louis, Mo.) with added EGTA (ethylene glycol-bis[β-aminoethyl ether]N,N,N^1,N^1 -tetraacetic acid) and Mg^2+ to 8 mM and 2 mM, respectively. Rabbit erythrocytes (4.5×10^6 cells/ml), human serum (1 in 24 dilution), and the compounds to be tested were incubated one hour at 37° C. in a V-bottom microtiter plate, cells pelleted by centrifugation, the supernatants transferred to a flat-bottom microtiter plate, and the absorbance at 410 nm determined. Samples were paired with identical controls lacking human serum (complement-independent lysis). Both samples and controls were run in triplicate. Control values were subtracted from sample values and the fractional inhibition was determined relative to the uninhibited (no added compound) sample. Results are reported as the concentration of compound yielding fifty per cent (50%) inhibition, AH50. The AH50 values for several of the compounds are included along with the results of other in vitro assays in Table XIV.

human complement = assay: Inhibition of complement-mediated hemolysis, human serum, sensitized sheep erythrocytes; format: biochemical
Protocol: The ability to inhibit complement was also tested by assaying for inhibition of complement-mediated red cell lysis (hemolysis). The inhibition of hemolysis was determined as a function of compound concentration. The compounds to be tested were diluted in 0.1M Hepes buffer (0.15N NaCl, pH 7.4), and 50 μl were added to each well of a V-bottom microtiter plate. Human serum, used as the complement source, was diluted 1 to 500 in Hepes buffer, and 50 μl were added to each well. Next, commercially available sheep erythrocytes with anti-sheep antibody (Diamedix Cat. No. 789-001) were used as received and added at 100 μl/well to initiate the complement pathway leading to hemolysis. The plate was incubated for 60 minutes at 37° C. and then centrifuged at 500×g for 10 minutes. The supernatants were removed and placed in a flat-bottom microtiter plate. The extent of hemolysis was measured as a function of the sample absorbance at 410 nm. The maximal absorbance (corresponding to maximal hemolysis), Amax, was obtained from the absorbance value of an erythrocyte sample containing only human serum, AS, less the absorbance of a sample containing only the red cells, A0. Thus, Amax =AS -A0. The difference between the absorbance of an erythrocyte sample containing both human serum and inhibitive compound, and the absorbance of a cell sample containing inhibitive compound only, was defined as Asample. The inhibition, IH, was expressed as the fraction (Amax -Asample)/Amax, and IH50 was defined as the concentration of inhibitive compound required to produce a value of IH=1/2.
The 4 substituted spirobenzofuran compounds of example 7 and the disubstituted spirobenzofuran compounds of example 8 were tested for their capacity to inhibit complement-mediated lysis of sheep red blood cells (SRBC) as described in Section 6.6.2 supra with the modification that the human serum used as the complement source was diluted to 1 to 100 in Hepes buffer, instead of […]. The results of the hemolysis assays are shown in FIG. 8 and Tables XI and XII.

factor I = target: T1, factor I (Homo sapiens, UniProt P05156); assay: Inhibition of C3b proteolysis by factor I (SDS-PAGE densitometry); format: biochemical; conditions: sCR1 8 nM as cofactor, C3b 1.2 μM, factor I 0.1 μM, 60 min 37° C.; read-out: C3b cleavage by Factor I, concentration yielding 50% inhibition
T1 construct: purchased Cytotech, San Diego, Calif
T1 sequence (P05156 340-583 limits assumed): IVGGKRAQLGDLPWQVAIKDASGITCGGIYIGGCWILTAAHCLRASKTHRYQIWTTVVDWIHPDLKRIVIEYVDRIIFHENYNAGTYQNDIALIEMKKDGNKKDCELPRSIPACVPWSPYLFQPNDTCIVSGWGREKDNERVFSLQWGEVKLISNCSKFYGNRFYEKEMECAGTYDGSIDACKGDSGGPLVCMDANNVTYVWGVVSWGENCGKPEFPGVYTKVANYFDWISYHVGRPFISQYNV
Excerpt: The reactions were stopped by the addition of reducing SDS-PAGE sample buffer (Laemmli, 1970, Nature, 227:680-685) subjected to electrophoresis on 4-20% polyacrylamide gradient gels, visualized with Coomassie Blue stain, and quantitated by densitometry. Controls lacking factor I and controls with factor I but lacking test compounds were included. Results are reported as the concentration of test compound which inhibited approximately fifty percent (50%) of the C3b a-chain degradation, IC50.

[2] = system: hyperacute graft rejection; assay: Guinea pig-to-rat cardiac transplant (discordant xenograft); format: in vivo; conditions: 28 mg/rat intravenous bolus; for Graft survival time: individual animals
Protocol: The effects of compounds 68 and 44a on hyperacute graft rejection were tested in a model of discordant xenografting. The methods were the same as described previously (Prewitt et al., 1991, Transplantation 52:868-873) except that the test compounds were substituted for the active agent (sCR1) of the earlier study. As indicated in the earlier study, male Lewis rats, 12-16 weeks of age, and male Hartley guinea pigs, 4-10 weeks of age (Charles River, Wilmington, Mass.) served as cardiac xenograft recipients and donors, respectively. Under Halothane anesthesia, heterotopic cardiac xenotransplantation was performed by a modification of the microvascular technique of Ono and Lindsey, 1990, J. Thorac. Cardiovas.
Cardiac xenografts were evaluated visually over the first 30 minutes following reperfusion and then, following abdominal closure, every 10 minutes by palpation until rejection. Rejection was defined as total cessation of cardiac xenograft contraction and was confirmed by direct visualization and histological examination. […] Control animals received similar volumes of PBS. Three (n=3) control animals were tested concurrent with the animals receiving compound 68; data from historic controls (n=13) subjected to the same procedure and previously reported (Pruitt et al., 1991, Transplantation 52:868-873) are also included for comparison. Table XV includes the xenograft survival times (minutes) for individual animals and the means and standard errors of the mean (SEM) for the various groups.

C3a production = assay: Inhibition of C3a production in human serum (aggregated IgG, RIA); format: biochemical; conditions: at a concentration of about 8.5 mM
Protocol: (§1) The ability to inhibit complement was tested by assaying for specific inhibition of C3a and C5a production. For all experiments, a single human serum pool, to be used as a source of complement, was aliquoted and stored frozen at -70° C. Human IgG was heat-aggregated, aliquoted, and stored frozen at -70° C. For each experiment, serum aliquots were equilibrated at 37° C. with varying concentrations of the compounds tested. The classical complement pathway was initiated by the addition of aggregated human IgG. Control samples containing no IgG were always included. After a fixed reaction time of 10 minutes (determined in an earlier time-course study to provide a convenient time interval during which the production of C5a or C3a is nearly complete, i.e., greater than 90%), the levels of the released complement peptides (C5a or C3a) were determined by radioimmunoassay using commercially available radioimmunoassay (RIA) kits (C5a RIA, UpJohn Cat. No. 3250-02; C3a RIA, UpJohn Cat. No. 3245-01; C5a RIA, Amersham Cat. No. RPA.520; C3a RIA, Amersham RPA.518).
(§2) Since a competitive immunoassay was used, complement peptide (C5a and C3a) concentrations varied inversely with the counts. The Counts Bound (CB) for a sample was defined as the total counts (in counts per minute, cpm) measured in the pellet minus the counts measured in a nonspecific binding (NSB) control. The NSB control was a sample containing only tracer peptide (^125 I-labelled) and second precipitating antiserum; it contained no C5a- or C3a-specific antiserum.
(§3) The y-axis in FIG. 2 represents the fraction inhibition. The fraction inhibition is equal to the Counts Bound (CB) for a "sample," less the CB in the "sample with no added compound," divided by the CB for the "no IgG control" less the CB in the "sample with no added compound." [formula]
(§4) FIG. 2 is representative of the data plots obtained from the assays described above.

C5a production = assay: Inhibition of C5a production in human serum (aggregated IgG, RIA); format: biochemical; conditions: concentration inhibiting C5a production 50% relative to control
Protocol: as §1, §2, §3, §4

[3] = system: human peripheral blood lymphocytes (PBL); assay: Inhibition of proliferation of peripheral blood lymphocytes, 3H-thymidine incorporation; format: cell-based; conditions: Lymphocyte, Table IX, 72 h
Protocol: The proliferation of human peripheral blood lymphocytes (PBL) in response to phytohemagglutinin (PHA, Well-come) or anti-CD3 monoclonal antibody (OKT-3, Ortho) was assessed by the incorporation of ^3 H-thymidine. Compound 11a was diluted in culture media to the desired concentrations, human PBL were added to a final concentration of 10^6 cells/ml, and then either PHA (Wellcome) or anti-CD3 (OKT3, Ortho) antibody (final concentration, […]) was added to initiate proliferation. The final volume per sample was 100 μl. The cells were incubated for 72 hours after stimulation, pulsed with 1 μCi ^3 H-thymidine per sample for 4 hours, harvested, and counted in a scintillation counter. […] Because cell viability was unaffected by the presence of 11a (see supra), the inhibition apparently was not due to cytotoxic effects.

[4] = system: guinea pig serum complement; conditions: sensitized sheep erythrocytes, read-out: concentration reducing hemolysis 50%; cited from earlier work
[5] = Table XI, human serum diluted 1 to 100, read-out: IH50 Mean
[6] = Table XIII, read-out: IH50 for Human Complement
[7] = Table XIV, read-out: Classical pathway IH50

Row | Compound | pIC50 (rat complement) | pIC50 [1] | pIC50 (human complement; [5]) | pIC50 (human complement; Table XII, human serum diluted 1 to 100, read-out: IH50 Mean) | pIC50 (human complement; [6]) | pIC50 (human complement; [7]) | pIC50 (factor I) | Graft survival time Mean ± SEM [2] [min] | Graft survival time ([2]; SODIUM SALT) | inhibition of C3a production (C3a production) | pIC50 (C5a production) | pIC50 ([3]; PHA stimulation, read-out: IP50 PHA-stimulated PBL) | pIC50 ([3]; anti-CD3 (OKT-3) stimulation, read-out: IP50 OKT-3-stimulated PBL) | pIC50 (human complement; Table VII, human serum, read-out: IHO50) | pIC50 [4] | effectiveness in inhibiting complement-mediated hemolysis compared with K76COOH (human complement) | graft survival relative to controls [2] | Graft survival time [2]
1 | COc1cc(C(=O)O)cc2c1CC1(CCCCC1)O2 [Compound 44a, 6-CARBOXYL-4-METHOXYSPIRO[BENZOFURAN-2(3H)-CYCLOHEXANE] SODIUM SALT] | 1.76 | < 2.30 | 3.28 | 3.27 | 3.27 | 3.28 | 2.56 | 8 | 7 min and 9 min | – | – | – | – | – | – | – | – | –
2 | sCR1: soluble human recombinant complement receptor type 1, used as a positive control in the in vitro assays | 8.82 | – | – | – | 9.05 | – | – | – | – | – | – | – | – | – | – | – | – | –
3 | CC1CCC2C(C)(C)C(O)C(O)CC2(C)C12Cc1c(O)cc(C(=O)O)c(C=O)c1O2 (centres unmarked) [K-76 COONa, reference compound] | – | – | – | – | – | – | – | – | – | Only marginal inhibition | 2.52 | 3.30 | 3.30 | 3.24 | 3.47 | – | – | –
4 | COc1cc(C(=O)O)c(C=O)c2c1CC1(CCCCC1)O2 [Compound 68, 6-carboxy-7-formyl-4-methoxyspiro[benzofuran-2(3H)-cyclohexane]] | – | 2.87 | 3.79 | – | 4.00 and 3.79 | 3.80 | 3.82 | 142 ± 76 | – | – | – | – | – | – | – | more effective | prolonged graft survival times in 2 of the 3 animals | 7 min and 150 min and 270 min
